Data set [1] concerns mouse FL5.12 cells transfected with Bcl-xL. Description: FL5.12 cellular assay (cell viability, CellTiter-Glo). The format is cell-based. As to conditions: IL-3-depleted, 3% FBS assay media, 24 hours, read-out: FL5.12 Bcl-xL, -IL3, EC50. The procedure:
Cell viability was assayed using the CellTiter-Glo assay (Promega Corp., Madison, WI) according to the manufacturer instructions. Individual determinations were the result of duplicate values. […] Table 2. In Vitro Data

A short description of data set [2]: Single dose pharmacokinetics, oral bioavailability. Type of data set: in vivo, Sprague-Dawley rats. As to conditions: for bioavailability: rat, in vivo, po.
Data set [3] deals with Molt-4 human acute lymphoblastic leukemia cells. Description: Molt-4 cellular assay (cell viability, MTS). The format is cell-based. The following applies: 10% human serum, 48 hours. The procedure: Molt-4 (ATCC, Manassas, VA) human acute lymphoblastic leukemia cells were plated 50,000 cells per well in 96-well tissue culture plates in a total volume of 100 µL tissue culture medium supplemented with 10% human serum (Invitrogen, Carlsbad, CA) and treated with a 3-fold serial dilution of the compounds of interest from 5 µM to […]. Each concentration was tested in duplicate at least 3 separate times. The number of viable cells following 48 hours of compound treatment was determined using the CellTiter 96® Aqueous non-radioactive cell proliferation MTS assay according to manufacturer's recommendations (Promega Corp., Madison, WI).

Bounds are passed on as bounds.

Take `Cc1c(-c2ccc(N3CCc4cccc(C(=O)Nc5nc6ccccc6s5)c4C3)nc2C(=O)O)cnn1CC12CC3CC(CC(C3)C1)C2` [Example 3, 6-[8-(1,3-benzothiazol-2-ylcarbamoyl)-3,4-dihydroisoquinolin-2(1H)-yl]-3-[5-methyl-1-(tricyclo[3.3.1.1^3,7]dec-1-ylmethyl)-1H-pyrazol-4-yl]pyridine-2-carboxylic acid]: the concentration giving a half-maximal response (EC50) – broadly, the concentration at which the effect is half-maximal – in data set [1] is below 1 nM; in data set [3], 6 nM. The “F (%), dose” value in data set [2] (Rat p.o. dose, 5 mpk) is on record as […].

Consider `O=C(Nc1nc2ccccc2s1)c1cccc2c1CN(c1ccc(-c3cnn(CC4C5CC6CC(C5)CC4C6)c3)c(C(=O)O)n1)CC2` (centres unmarked) [Example 10, 6-[8-(1,3-benzothiazol-2-ylcarbamoyl)-3,4-dihydroisoquinolin-2(1H)-yl]-3-[1-(tricyclo[3.3.1.1^3,7]dec-2-ylmethyl)-1H-pyrazol-4-yl]pyridine-2-carboxylic acid], for which the concentration giving a half-maximal response (EC50) worked out at 29 nM in data set [1] and 487 nM in data set [3].

Turning to `O=C(Nc1nc2ccccc2s1)c1cccc2c1CN(c1ccc(-c3cnn(CC45CC6CC(CC(C6)O4)C5)c3)c(C(=O)O)n1)CC2` [Example 13, 6-[8-(1,3-benzothiazol-2-ylcarbamoyl)-3,4-dihydroisoquinolin-2(1H)-yl]-3-[1-(2-oxatricyclo[3.3.1.1^3,7]dec-1-ylmethyl)-1H-pyrazol-4-yl]pyridine-2-carboxylic acid], the EC50 in data set [1] was 71 nM. Besides, in data set [2] (5 mg/kg), the bioavailability (usually the share of a dose that reaches the circulation, judged against a reference dose that is usually intravenous) turned out to be 10%.

Consider `COC12CC3CC(CC(Cn4ncc(-c5ccc(N6CCc7cccc(C(=O)Nc8nc9ccccc9s8)c7C6)nc5C(=O)O)c4C)(C3)C1)C2` [Example 16, 6-[8-(1,3-benzothiazol-2-ylcarbamoyl)-3,4-dihydroisoquinolin-2(1H)-yl]-3-(1-{[3-methoxytricyclo[3.3.1.1^3,7]dec-1-yl]methyl}-5-methyl-1H-pyrazol-4-yl)pyridine-2-carboxylic acid], for which the EC50 in data set [1] is below 1 nM. The molecule also showed a bioavailability in data set [2] (5 mg/kg) of 20%.

Take `Cc1c(-c2ccc(N3CCc4cccc(C(=O)Nc5nc6ccccc6s5)c4C3)nc2C(=O)NS(=O)(=O)C2CC2)cnn1CC12CC3CC(CC(C3)C1)C2` [Example 18, N-(1,3-benzothiazol-2-yl)-2-{6-[(cyclopropylsulfonyl)carbamoyl]-5-[5-methyl-1-(tricyclo[3.3.1.1^3,7]dec-1-ylmethyl)-1H-pyrazol-4-yl]pyridin-2-yl}-1,2,3,4-tetrahydroisoquinoline-8-carboxamide]: the EC50 in data set [1] was found to be 1 nM; in data set [3], 24 nM. In addition, the bioavailability in data set [2] (5 mg/kg) is 31%.

For the molecule `Cc1c(-c2ccc(N3CCc4cccc(C(=O)Nc5nc6ccccc6s5)c4C3)nc2C(=O)O)cc(C#N)n1CC12CC3CC(CC(C3)C1)C2` [Example 23, 6-[8-(1,3-benzothiazol-2-ylcarbamoyl)-3,4-dihydroisoquinolin-2(1H)-yl]-3-[5-cyano-2-methyl-1-(tricyclo[3.3.1.1^3,7]dec-1-ylmethyl)-1H-pyrrol-3-yl]pyridine-2-carboxylic acid], the EC50 in data set [1] is below 1 nM; in data set [3] it was 16 nM.

For `Cc1c(-c2ccc(N3CCc4cccc(C(=O)Nc5nc6cccnc6s5)c4C3)nc2C(=O)O)cnn1CC12CC3CC(CC(C3)C1)C2` [Example 24, 3-[5-methyl-1-(tricyclo[3.3.1.1^3,7]dec-1-ylmethyl)-1H-pyrazol-4-yl]-6-[8-([1,3]thiazolo[5,4-b]pyridin-2-ylcarbamoyl)-3,4-dihydroisoquinolin-2(1H)-yl]pyridine-2-carboxylic acid], in data set [1], the EC50 was below 1 nM. In data set [2] (5 mg/kg), this molecule had a bioavailability of 29%.

In the case of `Cc1c(OC23CC4CC(CC(C4)C2)C3)cccc1-c1ccc(N2CCc3cccc(C(=O)Nc4nc5ccccc5s4)c3C2)nc1C(=O)O` [Example 28, 6-[8-(1,3-benzothiazol-2-ylcarbamoyl)-3,4-dihydroisoquinolin-2(1H)-yl]-3-{2-methyl-3-[tricyclo[3.3.1.1^3,7]dec-1-yloxy]phenyl}pyridine-2-carboxylic acid], the concentration for a half-maximal effect (EC50) in data set [1] was determined as 22 nM; in data set [3] it was 526 nM.

As for `O=C(Nc1nc2ccccc2s1)c1cccc2c1CN(c1ccc(-c3cnn(CC45CC6CC(CC(C6)C4)C5)c3Cl)c(C(=O)O)n1)CC2` [Example 42, 6-[8-(1,3-benzothiazol-2-ylcarbamoyl)-3,4-dihydroisoquinolin-2(1H)-yl]-3-{5-chloro-1-[tricyclo[3.3.1.1^3,7]dec-1-ylmethyl]-1H-pyrazol-4-yl}pyridine-2-carboxylic acid], in data set [1], the EC50 came out at 0.5 nM. The molecule also displayed a bioavailability in data set [2] (1 mg/kg) of 15%.

For the molecule `Cc1c(-c2ccc(N3CCc4cccc(C(=O)Nc5nc6ccccc6s5)c4C3C)nc2C(=O)O)cnn1CC12CC3CC(CC(C3)C1)C2` (centres unmarked) [Example 43, 6-[8-(1,3-benzothiazol-2-ylcarbamoyl)-1-methyl-3,4-dihydroisoquinolin-2(1H)-yl]-3-[5-methyl-1-(tricyclo[3.3.1.1^3,7]dec-1-ylmethyl)-1H-pyrazol-4-yl]pyridine-2-carboxylic acid], the EC50 in data set [1] is 9 nM. The molecule further came in with a bioavailability in data set [2] (1 mg/kg) of 20%.

Regarding `COCCOC12CC3CC(CC(Cn4ncc(-c5ccc(N6CCc7cccc(C(=O)Nc8nc9ccccc9s8)c7C6)nc5C(=O)O)c4C)(C3)C1)C2` [Example 45, 6-[8-(1,3-benzothiazol-2-ylcarbamoyl)-3,4-dihydroisoquinolin-2(1H)-yl]-3-(1-{[3-(2-methoxyethoxy)tricyclo[3.3.1.1^3,7]dec-1-yl]methyl}-5-methyl-1H-pyrazol-4-yl)pyridine-2-carboxylic acid], the EC50 came to 0.9 nM in data set [1] and 4 nM in data set [3].

For `COCCC1(Cn2ncc(-c3ccc(N4CCc5cccc(C(=O)Nc6nc7ccccc7s6)c5C4)nc3C(=O)O)c2C)CCCCCCC1` [Example 46, 6-[8-(1,3-benzothiazol-2-ylcarbamoyl)-3,4-dihydroisoquinolin-2(1H)-yl]-3-(1-{[1-(2-methoxyethyl)cyclooctyl]methyl}-5-methyl-1H-pyrazol-4-yl)pyridine-2-carboxylic acid], the concentration for a half-maximal effect (EC50) in data set [1] turned out to be 1 nM. The molecule also had a bioavailability in data set [2] (1 mg/kg) of 58%.

Consider `Cc1c(-c2ccc(N3CCc4cccc(C(=O)Nc5cn6ccccc6n5)c4C3)nc2C(=O)O)cnn1CC12CC3CC(CC(C3)C1)C2` [Example 49, 6-[8-(imidazo[1,2-a]pyridin-2-ylcarbamoyl)-3,4-dihydroisoquinolin-2(1H)-yl]-3-[5-methyl-1-(tricyclo[3.3.1.1^3,7]dec-1-ylmethyl)-1H-pyrazol-4-yl]pyridine-2-carboxylic acid], for which the half-maximal effective concentration (EC50) in data set [1] worked out at 5 nM. The molecule also displayed a bioavailability in data set [2] (1 mg/kg) of 15%.

Take `Cc1c(-c2ccc(N3CCc4cccc(C(=O)Nc5nc6ccccc6s5)c4C3)nc2C(=O)O)cccc1N(C)C(=O)C12CC3CC(CC(C3)C1)C2` [Example 52, 6-[8-(1,3-benzothiazol-2-ylcarbamoyl)-3,4-dihydroisoquinolin-2(1H)-yl]-3-(2-methyl-3-{methyl[tricyclo[3.3.1.1^3,7]dec-1-ylcarbonyl]amino}phenyl)pyridine-2-carboxylic acid]: the EC50 in data set [1] is 3 nM; in data set [3], 29 nM.

Turning to `Cc1c(-c2ccc(N3CCc4cccc(C(=O)Nc5nc6ccccc6s5)c4C3)nc2C(=O)O)cnn1CC12CC3CC(CC(C3)O1)C2` [Example 59, 6-[8-(1,3-benzothiazol-2-ylcarbamoyl)-3,4-dihydroisoquinolin-2(1H)-yl]-3-[5-methyl-1-(2-oxatricyclo[3.3.1.1^3,7]dec-1-ylmethyl)-1H-pyrazol-4-yl]pyridine-2-carboxylic acid], the EC50 stood at 0.3 nM in data set [1] and 24 nM in data set [3]. Further, in data set [2] (1 mg/kg), the bioavailability worked out at 31%.

On to `Cc1c(-c2ccc(N3CCc4cccc(C(=O)Nc5nc6ccccc6s5)c4C3)nc2C(=O)O)cc(C#N)n1CC12CC3CC(CC(C)(C3)O1)C2` [Example 72, 6-[8-(1,3-benzothiazol-2-ylcarbamoyl)-3,4-dihydroisoquinolin-2(1H)-yl]-3-{5-cyano-2-methyl-1-[(3-methyl-2-oxatricyclo[3.3.1.1^3,7]dec-1-yl)methyl]-1H-pyrrol-3-yl}pyridine-2-carboxylic acid], for which the EC50 worked out at 0.2 nM in data set [1] and 35 nM in data set [3].

For the origin of these results see EP2766361B1, “8-CARBAMOYL-2-(2,3-DISUBSTITUTED PYRID-6-YL)-1,2,3,4-TETRAHYDROISOQUINOLINE DERIVATIVES AS APOPTOSIS-INDUCING AGENTS FOR THE TREATMENT OF CANCER AND IMMUNE AND AUTOIMMUNE DISEASES” (priority 2011, dated 2013).
